From patent publication US12655116B2, “Substituted isophthalic acid diamides” (Bayer Aktiengesellschaft, priority 2020, dated 2026)

Legend:
ECHCG [1] = assay: Post-emergence herbicidal action against ECHCG; format: in vivo, Echinochloa crus-galli
Summary of the method: (§1)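 Herbicidal effect was scored visually in percent after about 3 weeks in the greenhouse. Plants had been raised in sandy loam and treated post-emergence at the one-leaf stage with formulated compound at 600 to 800 l/ha water plus 0.2% wetting agent.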

ECHCG [2] = assay: Pre-emergence herbicidal action against ECHCG; format: in vivo, Echinochloa crus-galli; details: 80 g/ha
Summary of the method: (§2)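 Herbicidal effect was assessed 3 weeks after treatment by visual comparison with untreated controls, 100% denoting dead plants. Aqueous WP or EC preparations had been applied at 600 to 800 l/ha with 0.2% wetting agent to the soil covering freshly sown seeds.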

ALOMY [3] = assay: Pre-emergence herbicidal action against ALOMY; format: in vivo, Alopecurus myosuroides; details: 80 g/ha, pre-emergence, scored visually after 3 weeks vs untreated controls (100% = plants have died, 0% = like control plants)
Summary of the method: as §2

MATIN [4] = assay: Pre-emergence herbicidal action against MATIN; format: in vivo, Matricaria inodora
Summary of the method: as §2

VIOTR [5] = assay: Pre-emergence herbicidal action against VIOTR; format: in vivo, Viola tricolor; details: Viola tricolor, 504 h
Summary of the method: as §2

VIOTR [6] = assay: Post-emergence herbicidal action against VIOTR; format: in vivo, Viola tricolor
Summary of the method: as §1

POLCO = assay: Post-emergence herbicidal action against POLCO; format: in vivo, Polygonum convolvulus; details: dosage 20 g/ha
Procedure: Seeds of monocotyledonous and dicotyledonous weed and crop plants are laid out in sandy loam soil in wood-fiber pots, covered with soil and cultivated in a greenhouse under good growth conditions. 2 to 3 weeks after sowing, the test plants are treated at the one-leaf stage. The compounds of the invention, formulated in the form of wettable powders (WP) or as emulsion concentrates (EC), are then sprayed onto the green parts of the plants in the form of an aqueous suspension or emulsion at a water application rate equivalent to 600 to 800 l/ha, with addition of 0.2% wetting agent. After the test plants have been left to stand in the greenhouse under optimal growth conditions for about 3 weeks, the action of the preparations is assessed visually in comparison to untreated controls (herbicidal action in percent (%): 100% activity=the plants have died, 0% activity=like control plants). […] The tables below illustrate, in an illustrative manner, the post-emergence herbicidal action of the compounds of the invention, the herbicidal activity being stated in percent.

AMARE [7] = assay: Pre-emergence herbicidal action against AMARE; format: in vivo, Amaranthus retroflexus
Summary of the method: as §2

ABUTH [8] = assay: Post-emergence herbicidal action against ABUTH; format: in vivo, Abutilon theophrasti; details: visual assessment about 3 weeks after treatment vs untreated controls
Summary of the method: as §1

MATIN [9] = assay: Post-emergence herbicidal action against MATIN; format: in vivo, Matricaria inodora; details: Tripleurospermum inodorum, 504 h, dosage 20 g/ha
Summary of the method: as §1

SETVI = assay: Pre-emergence herbicidal action against SETVI; format: in vivo, Setaria viridis; details: Setaria viridis, 504 h, dosage 80 g/ha
Summary of the method: as §2

DIGSA [10] = assay: Pre-emergence herbicidal action against DIGSA; format: in vivo, Digitaria sanguinalis
Summary of the method: as §2

ABUTH [11] = assay: Pre-emergence herbicidal action against ABUTH; format: in vivo, Abutilon theophrasti; details: Abutilon theophrasti, 504 h
Summary of the method: as §2

VERPE [12] = assay: Pre-emergence herbicidal action against VERPE; format: in vivo, Veronica persica; details: Veronica persica, 504 h
Summary of the method: as §2

VERPE [13] = assay: Post-emergence herbicidal action against VERPE; format: in vivo, Veronica persica; details: Veronica persica, 504 h
Summary of the method: as §1

ALOMY [14] = assay: Post-emergence herbicidal action against ALOMY; format: in vivo, Alopecurus myosuroides; details: dosage 20 g/ha, visual assessment about 3 weeks after treatment vs untreated controls
Summary of the method: as §1

AVEFA = assay: Pre-emergence herbicidal action against AVEFA; format: in vivo, Avena fatua; details: 80 g/ha, pre-emergence
Summary of the method: as §2

AMARE [15] = assay: Post-emergence herbicidal action against AMARE; format: in vivo, Amaranthus retroflexus; details: 20 g/ha, visual assessment about 3 weeks after treatment, 100% = plants have died, 0% = like control plants
Summary of the method: as §1

DIGSA [16] = assay: Post-emergence herbicidal action against DIGSA; format: in vivo, Digitaria sanguinalis; details: 20 g/ha
Summary of the method: as §1

[17] = 80 g/ha, scored visually after 3 weeks vs untreated controls (100% = plants have died, 0% = like control plants)

Question: `CCNC(=O)c1c(C(F)F)ccc(C(=O)Nc2nnnn2C)c1OC` [Example 1-73] was tested. Which pest or weed control at 5 g/ha (ECHCG [1]; Echinochloa crus-galli, 504 h, dosage 5 g/ha) did it give?
Answer: 80%

Question: And the pest or weed control at 20 g/ha (ECHCG [1]; Echinochloa crus-galli, 504 h, dosage 20 g/ha)?
Answer: 80%

Question: What about the pest or weed control at 80 g/ha (ECHCG [2]; Echinochloa crus-galli, 504 h) of the same molecule?
Answer: 100%

Question: What about the pest or weed control at 80 g/ha (ALOMY [3]; Alopecurus myosuroides, 504 h) of the same molecule?
Answer: 80%

Question: What about the pest or weed control at 20 g/ha (MATIN [4]; Tripleurospermum inodorum, 504 h, dosage 20 g/ha) of the same molecule?
Answer: 90%

Question: And the pest or weed control at 80 g/ha (MATIN [4]; Tripleurospermum inodorum, 504 h, dosage 80 g/ha)?
Answer: 100%

Question: What about the pest or weed control at 20 g/ha (VIOTR [5]; dosage 20 g/ha) of the same molecule?
Answer: 100%

Question: And the pest or weed control at 80 g/ha (VIOTR [5]; dosage 80 g/ha)?
Answer: 100%

Question: And the pest or weed control at 5 g/ha (VIOTR [6]; Viola tricolor, 504 h, 5 g/ha)?
Answer: 80%

Question: And the pest or weed control at 20 g/ha (VIOTR [6]; Viola tricolor, 504 h, 20 g/ha)?
Answer: 80%

Question: What about the pest or weed control at 20 g/ha (POLCO; Fallopia convolvulus, 504 h) of the same molecule?
Answer: 80%

Question: And the pest or weed control at 20 g/ha (AMARE [7]; Amaranthus retroflexus, 504 h, 20 g/ha, scored visually after 3 weeks vs untreated controls, 100% = plants have died, 0% = like control plants)?
Answer: 100%

Question: And the pest or weed control at 80 g/ha (AMARE [7]; Amaranthus retroflexus, 504 h, 80 g/ha, scored visually after 3 weeks vs untreated controls, 100% = plants have died, 0% = like control plants)?
Answer: 100%

Question: What about the pest or weed control at 5 g/ha (ABUTH [8]; Abutilon theophrasti, 504 h, dosage 5 g/ha) of the same molecule?
Answer: 80%

Question: And the pest or weed control at 20 g/ha (ABUTH [8]; Abutilon theophrasti, 504 h, dosage 20 g/ha)?
Answer: 80%

Question: And the pest or weed control at 20 g/ha (MATIN [9])?
Answer: 80%

Question: What about the pest or weed control at 80 g/ha (SETVI) of the same molecule?
Answer: 100%

Question: And the pest or weed control at 20 g/ha (DIGSA [10]; Digitaria sanguinalis, 504 h, dosage 20 g/ha)?
Answer: 90%

Question: What about the pest or weed control at 80 g/ha (DIGSA [10]; Digitaria sanguinalis, 504 h, dosage 80 g/ha) of the same molecule?
Answer: 100%

Question: What about the pest or weed control at 80 g/ha (ABUTH [11]; [17]) of the same molecule?
Answer: 100%

Question: What about the pest or weed control at 20 g/ha (ABUTH [11]; dosage 20 g/ha, scored visually after 3 weeks vs untreated controls, 100% = plants have died, 0% = like control plants, read-out: Pre-emergence action against ABUTH (herbicidal activity in percent)) of the same molecule?
Answer: 100%

Question: What about the pest or weed control at 20 g/ha (VERPE [12]; dosage 20 g/ha) of the same molecule?
Answer: 80%

Question: What about the pest or weed control at 80 g/ha (VERPE [12]; dosage 80 g/ha) of the same molecule?
Answer: 100%

Question: And the pest or weed control at 5 g/ha (VERPE [13]; 5 g/ha)?
Answer: 80%

Question: What about the pest or weed control at 20 g/ha (VERPE [13]; 20 g/ha) of the same molecule?
Answer: 80%

Question: For `CCNC(=O)c1c(Br)ccc(C(=O)Nc2nnc(C)o2)c1Cl` [Example 6-141], which “Post-emergence action against ECHCG in %” value (ECHCG [1]; dosage 20 g/ha) is on record?
Answer: 80%

Question: What about the “Post-emergence action against ALOMY in %” value (ALOMY [14]) of the same molecule?
Answer: 90%

Question: What about the “Pre-emergence action against ECHCG in %” value (ECHCG [2]) of the same molecule?
Answer: 90%

Question: And the “Pre-emergence action against ALOMY (herbicidal activity)” value (ALOMY [3])?
Answer: 90%

Question: What about the “Pre-emergence action against MATIN in %” value (MATIN [4]; dosage 80 g/ha) of the same molecule?
Answer: 80%

Question: What about the “Post-emergence action against VIOTR in %” value (VIOTR [6]; 20 g/ha) of the same molecule?
Answer: 80%

Question: And the “Post-emergence action against POLCO in %” value (POLCO)?
Answer: 80%

Question: What about the “Pre-emergence action against AMARE in %” value (AMARE [7]; [17]) of the same molecule?
Answer: 100%

Question: And the “Post-emergence action against ABUTH in %” value (ABUTH [8]; dosage 20 g/ha)?
Answer: 80%

Question: And the “Pre-emergence action against DIGSA in %” value (DIGSA [10]; dosage 20 g/ha)?
Answer: 90%

Question: What about the “Pre-emergence action against DIGSA in %” value (DIGSA [10]; dosage 80 g/ha) of the same molecule?
Answer: 100%

Question: And the “Pre-emergence action against AVEFA in %” value (AVEFA)?
Answer: 80%

Question: And the “Post-emergence action at 20 g/ha against AMARE in %” value (AMARE [15])?
Answer: 100%

Question: What about the “Post-emergence action against DIGSA” value (DIGSA [16]) of the same molecule?
Answer: 80%
